# Assay results: patent US9358217B2, “Methods for reducing triglyceride, total cholesterol and low density lipoprotein blood levels” (MediciNova, Inc., priority 2013, dated 2016)
# Legend:
# Assay type in all cases: in vivo
# [1] = system: triglyceride blood levels; assay: Triglyceride blood levels in human subjects upon MN-001 administration
# Method: Human subjects were administered various daily amounts of MN-001 and placebo and their triglyceride blood levels (mg/deciliter or dl) measured at various time points. […] As to the “week 14” time point in Table 1-D, it provides triglyceride levels of follow-up patients after MN-001 administration was stopped at 12 weeks.
# [2] = system: total cholesterol blood levels; assay: Total cholesterol blood levels in human subjects upon MN-001 administration
# Method: Human subjects were administered various daily amounts of MN-001 and placebo and their total cholesterol blood levels (mg/dl) measured at various time points.
# LDL blood levels = assay: Total LDL blood levels in human subjects upon MN-001 administration
# Method: Human subjects were administered various daily amounts of MN-001 and placebo and their total LDL blood levels (mg/dl) measured at various time points.
# blood levels of HDL = assay: Blood levels of HDL upon administration of MN-001; settings: human subjects
# [3] = human subjects, various daily amounts, with certain exceptions
compound,measurement,setting,value
CCCc1c(SCCCOc2ccc(C(C)=O)c(OCCCC(=O)O)c2CCC)ccc(C(C)=O)c1O [MN-001],mean triglyceride blood level,"[1]; Table 1-A Asthma Subjects, 500 mg tid (N = 36), Screening",109.5 mg/dL
same,mean triglyceride blood level,"[1]; Table 1-A Asthma Subjects, 500 mg tid (N = 36), Week 4",91.6 mg/dL
same,mean triglyceride blood level,"[1]; Table 1-A Asthma Subjects, 750 mg bid (N = 36), Screening",125.5 mg/dL
same,mean triglyceride blood level,"[1]; Table 1-A Asthma Subjects, 750 mg bid (N = 36), Week 4",98.5 mg/dL
same,mean triglyceride blood level,"[1]; Table 1-A Asthma Subjects, 750 mg qd (N = 36), Screening",112.2 mg/dL
same,mean triglyceride blood level,"[1]; Table 1-A Asthma Subjects, 750 mg qd (N = 36), Week 4",117.2 mg/dL
same,mean triglyceride blood level,"[1]; Table 1-B Interstitial Cystitis Subjects, 500 mg bid (N = 106), Baseline",135.7 mg/dL
same,mean triglyceride blood level,"[1]; Table 1-B Interstitial Cystitis Subjects, 500 mg bid (N = 106), Week 4",106.7 mg/dL
same,mean triglyceride blood level,"[1]; Table 1-B Interstitial Cystitis Subjects, 500 mg bid (N = 106), Week 8",110.7 mg/dL
same,mean triglyceride blood level,"[1]; Table 1-B Interstitial Cystitis Subjects, 500 mg qd (N = 94), Baseline",136.1 mg/dL
same,mean triglyceride blood level,"[1]; Table 1-B Interstitial Cystitis Subjects, 500 mg qd (N = 94), Week 4",109.5 mg/dL
same,mean triglyceride blood level,"[1]; Table 1-B Interstitial Cystitis Subjects, 500 mg qd (N = 94), Week 8",124.7 mg/dL
same,mean triglyceride blood level,"[1]; Table 1-C Healthy Subjects, 1500 mg/day × 10 days (N = 11), Day 11",87.5 mg/dL
same,mean triglyceride blood level,"[1]; Table 1-C Healthy Subjects, 1500 mg/day × 10 days (N = 11), Screening",145.4 mg/dL
same,mean triglyceride blood level,"[1]; Table 1-D Asthma Subjects, 500 mg tid (N = 54), Baseline",159.4 mg/dL
same,mean triglyceride blood level,"[1]; Table 1-D Asthma Subjects, 500 mg tid (N = 54), Week 4",112.5 mg/dL
same,mean triglyceride blood level,"[1]; Table 1-D Asthma Subjects, 500 mg tid (N = 54), Week 8",132.4 mg/dL
same,mean triglyceride blood level,"[1]; Table 1-D Asthma Subjects, 500 mg tid (N = 54), Week 12",147.7 mg/dL
same,mean triglyceride blood level,"[1]; Table 1-D Asthma Subjects, 500 mg tid (N = 54), Week 14 (follow-up, administration stopped at 12 weeks)",134.1 mg/dL
same,mean triglyceride blood level,"[1]; Table 1-D Asthma Subjects, 750 mg bid (N = 53), Baseline",117.0 mg/dL
same,mean triglyceride blood level,"[1]; Table 1-D Asthma Subjects, 750 mg bid (N = 53), Week 4",94.1 mg/dL
same,mean triglyceride blood level,"[1]; Table 1-D Asthma Subjects, 750 mg bid (N = 53), Week 8",101.4 mg/dL
same,mean triglyceride blood level,"[1]; Table 1-D Asthma Subjects, 750 mg bid (N = 53), Week 12",114.0 mg/dL
same,mean triglyceride blood level,"[1]; Table 1-D Asthma Subjects, 750 mg bid (N = 53), Week 14 (follow-up, administration stopped at 12 weeks)",104.6 mg/dL
same,triglyceride levels during follow-up period compared with a control group,"[1]; Table 1-D, week 14, after administration was stopped at 12 weeks",continued their downward trend
same,effect on mean triglyceride blood levels compared to control subjects (placebo),[1]; [3],substantial lowering
same,mean total cholesterol blood level,"[2]; Table 2-A Asthma Subjects, 500 mg tid (N = 36), Screening",193.5 mg/dL
same,mean total cholesterol blood level,"[2]; Table 2-A Asthma Subjects, 500 mg tid (N = 36), Week 4",183.1 mg/dL
same,mean total cholesterol blood level,"[2]; Table 2-A Asthma Subjects, 750 mg bid (N = 36), Screening",180.5 mg/dL
same,mean total cholesterol blood level,"[2]; Table 2-A Asthma Subjects, 750 mg bid (N = 36), Week 4",181.6 mg/dL
same,mean total cholesterol blood level,"[2]; Table 2-A Asthma Subjects, 750 mg qd (N = 36), Screening",191.5 mg/dL
same,mean total cholesterol blood level,"[2]; Table 2-A Asthma Subjects, 750 mg qd (N = 36), Week 4",180.6 mg/dL
same,mean total cholesterol blood level,"[2]; Table 2-B Interstitial Cystitis Subjects, 500 mg bid (N = 106), Baseline",174.5 mg/dL
same,mean total cholesterol blood level,"[2]; Table 2-B Interstitial Cystitis Subjects, 500 mg bid (N = 106), Week 4",169.8 mg/dL
same,mean total cholesterol blood level,"[2]; Table 2-B Interstitial Cystitis Subjects, 500 mg bid (N = 106), Week 8",168.7 mg/dL
same,mean total cholesterol blood level,"[2]; Table 2-B Interstitial Cystitis Subjects, 500 mg qd (N = 94), Baseline",173.8 mg/dL
same,mean total cholesterol blood level,"[2]; Table 2-B Interstitial Cystitis Subjects, 500 mg qd (N = 94), Week 4",171.5 mg/dL
same,mean total cholesterol blood level,"[2]; Table 2-B Interstitial Cystitis Subjects, 500 mg qd (N = 94), Week 8",170.5 mg/dL
same,mean total cholesterol blood level,"[2]; Table 2-C Healthy Subjects, 1500 mg/day × 10 days (N = 11), Day 11",167.8 mg/dL
same,mean total cholesterol blood level,"[2]; Table 2-C Healthy Subjects, 1500 mg/day × 10 days (N = 11), Screening",176.9 mg/dL
same,mean total cholesterol blood level,"[2]; Table 2-D Asthma Subjects, 500 mg tid (N = 54), Baseline",182.5 mg/dL
same,mean total cholesterol blood level,"[2]; Table 2-D Asthma Subjects, 500 mg tid (N = 54), Week 4",179.3 mg/dL
same,mean total cholesterol blood level,"[2]; Table 2-D Asthma Subjects, 500 mg tid (N = 54), Week 8",176.9 mg/dL
same,mean total cholesterol blood level,"[2]; Table 2-D Asthma Subjects, 500 mg tid (N = 54), Week 12",169.6 mg/dL
same,mean total cholesterol blood level,"[2]; Table 2-D Asthma Subjects, 500 mg tid (N = 54), Week 14 (follow-up, administration stopped at 12 weeks)",182.8 mg/dL
same,mean total cholesterol blood level,"[2]; Table 2-D Asthma Subjects, 750 mg bid (N = 53), Baseline",185.4 mg/dL
same,mean total cholesterol blood level,"[2]; Table 2-D Asthma Subjects, 750 mg bid (N = 53), Week 4",181.6 mg/dL
same,mean total cholesterol blood level,"[2]; Table 2-D Asthma Subjects, 750 mg bid (N = 53), Week 8",187.3 mg/dL
same,mean total cholesterol blood level,"[2]; Table 2-D Asthma Subjects, 750 mg bid (N = 53), Week 12",192.4 mg/dL
same,mean total cholesterol blood level,"[2]; Table 2-D Asthma Subjects, 750 mg bid (N = 53), Week 14 (follow-up, administration stopped at 12 weeks)",182.6 mg/dL
same,effect on mean total cholesterol blood levels compared to control subjects (placebo),[2]; [3],substantial lowering
same,mean LDL blood level,"LDL blood levels; Table 3-A Asthma Subjects, 500 mg tid (N = 36), Screening",113.8 mg/dL
same,mean LDL blood level,"LDL blood levels; Table 3-A Asthma Subjects, 500 mg tid (N = 36), Week 4",105.4 mg/dL
same,mean LDL blood level,"LDL blood levels; Table 3-A Asthma Subjects, 750 mg bid (N = 36), Screening",100.3 mg/dL
same,mean LDL blood level,"LDL blood levels; Table 3-A Asthma Subjects, 750 mg bid (N = 36), Week 4",104.7 mg/dL
same,mean LDL blood level,"LDL blood levels; Table 3-A Asthma Subjects, 750 mg qd (N = 36), Screening",115.7 mg/dL
same,mean LDL blood level,"LDL blood levels; Table 3-A Asthma Subjects, 750 mg qd (N = 36), Week 4",106.9 mg/dL
same,mean LDL blood level,"LDL blood levels; Table 3-B Interstitial Cystitis Subjects, 500 mg bid (N = 106), Baseline",62.6 mg/dL
same,mean LDL blood level,"LDL blood levels; Table 3-B Interstitial Cystitis Subjects, 500 mg bid (N = 106), Week 4",54.5 mg/dL
same,mean LDL blood level,"LDL blood levels; Table 3-B Interstitial Cystitis Subjects, 500 mg bid (N = 106), Week 8",52.2 mg/dL
same,mean LDL blood level,"LDL blood levels; Table 3-B Interstitial Cystitis Subjects, 500 mg qd (N = 94), Baseline",65.8 mg/dL
same,mean LDL blood level,"LDL blood levels; Table 3-B Interstitial Cystitis Subjects, 500 mg qd (N = 94), Week 4",60.1 mg/dL
same,mean LDL blood level,"LDL blood levels; Table 3-B Interstitial Cystitis Subjects, 500 mg qd (N = 94), Week 8",55.5 mg/dL
same,mean LDL blood level,"LDL blood levels; Table 3-C Healthy Subjects, 1500 mg/day × 10 days (N = 11), Day 11",103.0 mg/dL
same,mean LDL blood level,"LDL blood levels; Table 3-C Healthy Subjects, 1500 mg/day × 10 days (N = 11), Screening",99.1 mg/dL
same,mean LDL blood level,"LDL blood levels; Table 3-D Asthma Subjects, 500 mg tid (N = 54), Baseline",100.2 mg/dL
same,mean LDL blood level,"LDL blood levels; Table 3-D Asthma Subjects, 500 mg tid (N = 54), Week 4",99.5 mg/dL
same,mean LDL blood level,"LDL blood levels; Table 3-D Asthma Subjects, 500 mg tid (N = 54), Week 8",99.1 mg/dL
same,mean LDL blood level,"LDL blood levels; Table 3-D Asthma Subjects, 500 mg tid (N = 54), Week 12",92.5 mg/dL
same,mean LDL blood level,"LDL blood levels; Table 3-D Asthma Subjects, 500 mg tid (N = 54), Week 14 (follow-up, administration stopped at 12 weeks)",102.6 mg/dL
same,mean LDL blood level,"LDL blood levels; Table 3-D Asthma Subjects, 750 mg bid (N = 53), Baseline",106.3 mg/dL
same,mean LDL blood level,"LDL blood levels; Table 3-D Asthma Subjects, 750 mg bid (N = 53), Week 4",102.3 mg/dL
same,mean LDL blood level,"LDL blood levels; Table 3-D Asthma Subjects, 750 mg bid (N = 53), Week 8",106.6 mg/dL
same,mean LDL blood level,"LDL blood levels; Table 3-D Asthma Subjects, 750 mg bid (N = 53), Week 12",110.9 mg/dL
same,mean LDL blood level,"LDL blood levels; Table 3-D Asthma Subjects, 750 mg bid (N = 53), Week 14 (follow-up, administration stopped at 12 weeks)",103.6 mg/dL
same,effect on mean LDL blood levels compared to control subjects (placebo),LDL blood levels; [3],substantial lowering
same,effect on blood levels of HDL,blood levels of HDL,"not altered substantially, if at all"
